# Values joined by “and” are separate entries in the source; they are usually repeats but may differ in a detail not shown here. Equal entries are not always repeated.
# Assays:
# MCL-1 = biological target: T1, MCL-1 (Homo sapiens, UniProt Q07820); assay: Isothermal calorimetry (ITC) of peptide binding to MCL-1; conditions: 50 mM Tris, 150 mM NaCl, pH 7.5, 150 μM peptide; for Kd: 25°C, one-binding site model
# T1 construct: 172-327 was expressed; His-SUMO (N, cleaved yes); made in house
# Experimental: Peptide variants were prepared as N-terminal acetamides and C-terminal amides (see ESI ^†). […] Lastly, structural effects of these variations were investigated using circular dichroism (CD) spectroscopy (Fig. S4, ESI ^†).
# (b) ITC data (50 mM Tris, 150 mM NaCl, pH 7.5, 150 μM peptide). […]
# ITC experiments were carried out using a Microcal ITC200i instrument (Malvern) at 25°C in […]
# […] The protein of interest was dialysed against the buffer prior to experiment, and lyophilized peptides were dissolved in the same buffer. Protein was present in the cell and titrated with peptide solutions loaded into the syringe using 20 x 2 uL injections with 120 s spacing between the injections. Heats of peptide dilution were subtracted from each measurement raw data. Data was analysed using Microcal Origin 8 and
# hMCL-1 172-327 = biological target: T2, hMCL-1 172-327 (Homo sapiens, UniProt Q07820); assay: Fluorescence anisotropy competition assay, FITC-Ahx-BIM75–85 tracer / MCL-1; format: binding; conditions: for inhibitory activity in competition FA: competition FA vs FITC-Ahx-BIM75–85/MCL-1, relative to NOXA75–93
# T2 construct: 172-327 was expressed; His-SUMO (N, cleaved yes); made in house
# Experimental: (§1) Fluorescence anisotropy assays were performed in 384-well plates (Greiner Bio-one). Each experiment was run in triplicate and the fluorescence anisotropy measured using a Perkin Elmer EnVisionTM 2103 MultiLabel plate reader, with excitation at 480 nm (30 nm bandwidth), polarised dichroic mirror at 505 nm and emission at 535 nm (40 nm bandwidth, S and P polarised). All assays were performed in 20 mM Tris, 100 mM NaCl, 0.1 mM DTT, pH 7.5 unless otherwise stated and data analysed following previously published methods.
# (§2) Fluorescence anisotropy data was processed as described previously.[2] Briefly. the data from both the P (perpendicular intensity) and S (parallel intensity) channels, resulting from this measurement and corrected by subtracting the corresponding control wells, were used to calculate the intensity and anisotropy for each well following Equations 1 and 2: […]
# (§3) For direct titration the average anisotropy (across three experimental replicates) and the standard deviation of these values were then calculated and fit to a logistic model using OriginPro 9.0 to determine the maximum and minimum anisotropies then the fraction bound calculated (Equation 3) and used to determine Kd (equation 4)
# (§4) Lb= (r‒rmin)/λ(rmax‒r)+r‒rmin Equation 3
# (§5) y= {(k+ x+[ FL])‒√{k+x+[FL] 2‒4x[FL]}}/2 Equation 4 r = anisotropy, I = total intensity, P = perpendicular intensity, S = parallel intensity, G = instrument factor which was set to 1 for all experiments, Lb = fraction ligand bound, λ = […]
# (§6) For competition experiments, the anisotropies were determined as for the direct titration and then plotted against inhibitor concentration and fit (equation 5) to determine the IC50 and error […]
# (§7) y = rmax + (rmin-rmax)/(1+(x/xo)p) Equation 5
# (§8) Where xo represents the IC50 […]
# (§9) Competition binding assays:
# (§10) FA competition assays were performed in 384 well plates with the concentration of variant […]
# (§11) with fixed protein and tracer concentrations. FITC-labelled peptide was added to each well to […]
# (§12) For control wells, the tracer peptide was replaced with an identical volume of assay buffer.
# (§13) The total volume in each well was 60 μL. […]
# hSUMO-1 18-97 = biological target: T3, hSUMO-1 18-97 (Homo sapiens, UniProt P63165); assay: Fluorescence anisotropy competition assay, FITC-peg-SIM tracer / SUMO; format: binding; conditions: for IC50: competition FA, 50 mM Tris, 150 mM NaCl, 25 nM tracer, 100 nM SUMO, read after 45 min, triplicate; for inhibitory potency in competition FA: competition FA vs SIM tracer/SUMO, relative to SIM2705–2717
# T3 construct: 18-97; His-TEV (N, cleaved yes); made in house
# Experimental: hSUMO-1 18-97 was expressed and purified as previously described from a pet19b His-TEV-SUMO-1 (18-97) construct with cleavage of the tag using TEV protease.4 […]
# as §1, §2, §3, §4, §5, §6, §7, §8, §9, §10, §11, §12, §13
# α-chymotrypsin = assay: Proteolysis by α-chymotrypsin; format: in vitro ADME, bovine; conditions: 45 μM peptide, 0.25 μg/ml α-chymotrypsin, 25 °C, 50 mM Tris-HCl pH 8.0, 150 mM NaCl, 10 mM CaCl2; LC-MS EIC of full-length peptide; triplicate
# Excerpt: An advantage of PreSaVS lies in the ability to identify tolerated variants – in terms of target binding affinity – with more desirable physicochemical properties (Table S3 for calculated physicochemical properties, ESI ^†). […] This may arise from subtle changes in protease recognition specificity, although given proteases recognise substrates in an extended, β-like conformation as is the case for the SIM2705–2717/SUMO interaction, secondary structure propensity may also play a role.
# Figure S7. Proteolysis data for (a) NOXA75-93 (45 μM peptide in the presence of 0.25 μg/ml α-chymotrypsin at 25 °C) and (b) SIM2705-2717 (40 μM peptide in the presence of 0.75 μg/mL Proteinase K at 25 °C). Data points show the mean ± standard deviation over triplicate measurements. Insets show t1/2 values.
# as §8
# diluted over 16-24 points using 2-fold dilutions. […]
# of assay buffer. Plates were read after 45 minutes. […]
# The total volume in each well was 60 μL. Plates were read after 45 minutes of incubation at […]
# uL injections with 120 s spacing between the injections. […] Data was analysed using Microcal Origin 8 and fitted to a one-binding site model […]
# Peptide solubility was assessed using a qualitative test.
# = 5690 M-1cm-1), concentrations were determined based on the absorbance at 280 nm. For NOXA variants, concentrations were determined based on absorbance at 205 nm (ε 205 = […]
# T2 sequence (Q07820 172-327): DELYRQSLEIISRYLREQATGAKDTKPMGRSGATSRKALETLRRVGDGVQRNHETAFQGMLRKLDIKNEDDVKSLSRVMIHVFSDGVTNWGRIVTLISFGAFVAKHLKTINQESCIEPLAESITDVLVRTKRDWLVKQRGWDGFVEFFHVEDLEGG
# T1 sequence (Q07820 172-327): as above
# T3 sequence (P63165 18-97): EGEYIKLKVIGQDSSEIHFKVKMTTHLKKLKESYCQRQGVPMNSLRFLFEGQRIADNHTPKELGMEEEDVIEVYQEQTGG
ΔG (MCL-1),ΔH (MCL-1),Kd (MCL-1),IC50 (hMCL-1 172-327),inhibitory activity in competition FA (hMCL-1 172-327),IC50 (hSUMO-1 18-97),Compound,other results
,,,,,16200 nM and 16100 nM,CC[C@H](C)[C@H](NC(=O)[C@H](CCC(=O)O)NC(=O)[C@H](CC(N)=O)NC(=O)[C@H](CC(=O)O)NC(C)=O)C(=O)N[C@@H](CCC(=O)O)C(=O)N[C@H](C(=O)N[C@H](C(=O)N[C@H](C(=O)N[C@H](C(=O)N[C@@H](Cc1c[nH]c2ccccc12)C(=O)N[C@@H](CCC(=O)O)C(=O)N[C@@H](CCCCN)C(=O)N[C@@H](CCCCN)C(N)=O)C(C)C)[C@@H](C)CC)[C@@H](C)CC)[C@@H](C)CC [SIM2705–2717V2710I],
,,,,,> 200000 nM,CC[C@H](C)[C@H](NC(=O)[C@H](CCC(=O)O)NC(=O)[C@H](CC(N)=O)NC(=O)[C@H](CC(=O)O)NC(C)=O)C(=O)N[C@@H](CCC(=O)O)C(=O)N[C@H](C(=O)N[C@@H](CCC(=O)O)C(=O)N[C@H](C(=O)N[C@H](C(=O)N[C@@H](Cc1c[nH]c2ccccc12)C(=O)N[C@@H](CCC(=O)O)C(=O)N[C@@H](CCCCN)C(=O)N[C@@H](CCCCN)C(N)=O)C(C)C)[C@@H](C)CC)C(C)C [SIM2705–2717I2711E],inhibitory potency in competition FA (hSUMO-1 18-97): lost inhibitory potency
,,,,,> 200000 nM,CC[C@H](C)[C@H](NC(=O)[C@H](CCC(=O)O)NC(=O)[C@H](CC(N)=O)NC(=O)[C@H](CC(=O)O)NC(C)=O)C(=O)N[C@@H](CCC(=O)O)C(=O)N[C@H](C(=O)N[C@H](C(=O)N[C@H](C(=O)N[C@@H](CCC(=O)O)C(=O)N[C@@H](Cc1c[nH]c2ccccc12)C(=O)N[C@@H](CCC(=O)O)C(=O)N[C@@H](CCCCN)C(=O)N[C@@H](CCCCN)C(N)=O)[C@@H](C)CC)[C@@H](C)CC)C(C)C [SIM2705–2717V2713E],inhibitory potency in competition FA (hSUMO-1 18-97): lost inhibitory potency

# The remaining lines, values behind:
Compound,ΔG (MCL-1),ΔH (MCL-1),Kd (MCL-1),IC50 (hMCL-1 172-327),inhibitory activity in competition FA (hMCL-1 172-327),IC50 (hSUMO-1 18-97),other results
Ac-AAQWRRIGDKVNLRQKLLN-NH2 [NOXA75–93L78W],-1.83 kcal/mol,-3.13 ± 0.932 kcal/mol,2400 ± 800 nM,2200 ± 100 nM,tolerated,,−TΔS (MCL-1): 1.31 kcal/mol
Ac-AAQYRRIGDKVNLRQKLLN-NH2 [NOXA75–93L78Y],,,,> 100000 nM,poor inhibitor,,increased rate of cleavage by α-chymotrypsin relative to NOXA75–93 (α-chymotrypsin): ≈ 10 fold
Ac-AAQFRRIGDKVNLRQKLLN-NH2 [NOXA75–93L78F],,,1700 ± 100 nM,2700 ± 100 nM,,,increased rate of cleavage by α-chymotrypsin relative to NOXA75–93 (α-chymotrypsin): ≈ 10 fold
CC[C@H](C)[C@H](NC(=O)[C@H](CCCNC(=N)N)NC(=O)[C@H](CCCNC(=N)N)NC(=O)[C@H](CC(C)C)NC(=O)[C@H](CCC(N)=O)NC(=O)[C@H](C)NC(=O)[C@H](C)NC(C)=O)C(=O)NCC(=O)N[C@@H](CC(=O)O)C(=O)N[C@@H](CCCCN)C(=O)N[C@H](C(=O)N[C@@H](CC(N)=O)C(=O)N[C@@H](CC(C)C)C(=O)N[C@@H](CCCNC(=N)N)C(=O)N[C@@H](CCC(N)=O)C(=O)N[C@@H](CCCCN)C(=O)N[C@@H](CC(C)C)C(=O)N[C@@H](CC(C)C)C(=O)N[C@@H](CC(N)=O)C(N)=O)C(C)C [NOXA75–93],-2.08 kcal/mol,-4.59 ± 0.359 kcal/mol,,,,,
Ac-AAQLRRIGDKFNLRQKLLN-NH2 [NOXA75–93V85F],-2 kcal/mol,-3.66 ± 0.813 kcal/mol,800 ± 100 nM,> 20000 nM,weaker inhibitory activity,,−TΔS (MCL-1): 1.65 kcal/mol
